Data from US20110189347A1 (priority 2008, published 2011).
Like-named read-outs stand apart in the source and are kept apart here.

Experiments:
Clostridium perfringens = assay: microbe, parasite or virus in culture; assay type: cell-based
[1] = test system: Salmonella enterica subsp enterica serovar Enteritidis; assay: microbe, parasite or virus in culture
[2] = test system: Salmonella enterica subsp enterica serovar Typhimurium; assay: microbe, parasite or virus in culture
[3] = test system: commensal Escherichia coli; assay: microbe, parasite or virus in culture
Enterococcus faecalis = assay: microbe, parasite or virus in culture
[4] = Growth performance of broiler chickens, floor pen trial over five weeks (Example 6); assay type: in vivo; details: for numerical improvement of weight gain compared to the control: day 1 to day 36
Description: The objective of the present trial (Trial A) was to evaluate the effects of sucinic acid on the growth performance of broiler chickens in a floor pen trial over five weeks. Succinic acid was supplemented at four different dose levels. […] Each group was placed in one floor pen littered with wood shavings and allocated to one of the different treatments. Each treatment was replicated with 4 groups per sex. Birds had ad libitum access to feed and tap water. […] Chickens received diets based on soybean meal, and wheat as main ingredients (Table 6). […] The target quantities of succinic acid were added on top to the feed, mixed with appropriate amounts of maize starch as a carrier: […] For the statistical evaluation of the data, a one-factorial analysis of variance for each diet (factor: treatment) was carried out. Where significant treatment effects (p<0.05) were indicated, the differences among treatment means were subsequently analyzed with the Newman-Keuls test.

[5] = 0.5% in diet, 29 days
[6] = for Daily feed intake / Live weight of piglets: dietary inclusion 1.0%

O=C(O)CC(O)(CC(=O)O)C(=O)O [citric acid, reference compound]
MIC90 (Clostridium perfringens): < 31.2 mM
MIC90 [1]: < 31.2 mM
MIC90 [2]: < 31.2 mM
MIC90 [3]: < 31.2 mM
MIC90 (Enterococcus faecalis): < 31.2 mM

COC[C@H]1O[C@@H](OC2OC[C@@H]3O[C@]4(O[C@H]3[C@H]2OC(=O)C(C)C)O[C@H](C)[C@@](O)(C(C)=O)[C@@H]2OCO[C@H]24)[C@@H](OC)[C@@H](O)[C@@H]1O[C@@H]1O[C@H](C)[C@H](OC)[C@H](O[C@H]2C[C@@]3(C)OC4(C[C@@H](O)[C@H](O[C@H]5C[C@@H](O)[C@H](OC(=O)c6c(C)c(Cl)c(O)c(Cl)c6OC)[C@@H](C)O5)[C@@H](C)O4)O[C@@H]3[C@@H](C)O2)[C@H]1O (stereo partly drawn) [Avilamycin, reference compound]
Feed conversion ([4]; Day 1-22, 10 mg/kg feed): 1.462^A g feed/g gain
Feed conversion, relative to control (100) ([4]; Day 1-22, 10 mg/kg feed): 101.0
Feed intake ([4]; Day 1-22, 10 mg/kg feed): 1450^A g
Weight gain ([4]; Day 1-22, 10 mg/kg feed): 992^BC g
Weight gain, relative to control (100) ([4]; Day 1-22, 10 mg/kg feed): 104.1
Feed conversion ([4]; Day 1-36, 10 mg/kg feed): 1.638^A g feed/g gain
Feed conversion, relative to control (100) ([4]; Day 1-36, 10 mg/kg feed): 100.9
Feed intake ([4]; Day 1-36, 10 mg/kg feed): 3860^A g
Weight gain ([4]; Day 1-36, 10 mg/kg feed): 2359^A g
Weight gain, relative to control (100) ([4]; Day 1-36, 10 mg/kg feed): 102.5
Feed conversion ([4]; Day 22-36, 10 mg/kg feed): 1.769^A g feed/g gain
Feed conversion, relative to control (100) ([4]; Day 22-36, 10 mg/kg feed): 101.1
Feed intake ([4]; Day 22-36, 10 mg/kg feed): 2412^A g
Weight gain ([4]; Day 22-36, 10 mg/kg feed): 1366^A g
Weight gain, relative to control (100) ([4]; Day 22-36, 10 mg/kg feed): 101.4

O=C(O)CCC(=O)O [Succinic acid, succinic acid]
MIC90 (Clostridium perfringens): < 31.2 mM
DWG numerically higher than control group [5]: 5%
Weight gain ([5]; group B, n = 24): 6.57 ± 1.91 kg
MIC90 [1]: < 31.2 mM
MIC90 [2]: < 31.2 mM
Daily feed intake ([6]; Day 0-14): 368 g
Daily feed intake ([6]; Day 14-24): 649 g
Live weight of piglets ([6]; Day 14): 12.01 kg
Daily feed intake ([6]; Day 24-36): 869 g
Live weight of piglets ([6]; Day 24): 16.90 kg
Live weight of piglets ([6]; Final, day 36): 24.32 kg
Live weight of piglets ([6]; Initial, day 0): 8.51 kg
Daily feed intake ([6]; Overall, day 0-36): 613 g
reduction of feed intake versus control ([6]; day 0-14, dietary level of 1.0%): −25.4%
MIC90 [3]: < 31.2 mM
MIC90 (Enterococcus faecalis): < 31.2 mM
Feed conversion ([4]; Day 1-22, 2.5 g/kg feed): 1.365^B g feed/g gain
Feed intake ([4]; Day 1-22, 2.5 g/kg feed): 1427^A g
Weight gain ([4]; Day 1-22, 2.5 g/kg feed): 1046^A g
Feed conversion ([4]; Day 1-22, 5 g/kg feed): 1.461^A g feed/g gain
Feed intake ([4]; Day 1-22, 5 g/kg feed): 1446^A g
Weight gain ([4]; Day 1-22, 5 g/kg feed): 991^BC g
Feed conversion ([4]; Day 1-22, 7.5 g/kg feed): 1.372^B g feed/g gain
Feed intake ([4]; Day 1-22, 7.5 g/kg feed): 1445^A g
Weight gain ([4]; Day 1-22, 7.5 g/kg feed): 1054^A g
Feed conversion ([4]; Day 1-22, 10 g/kg feed): 1.381^B g feed/g gain
Feed intake ([4]; Day 1-22, 10 g/kg feed): 1430^A g
Weight gain ([4]; Day 1-22, 10 g/kg feed): 1036^AB g
Feed conversion ([4]; Day 1-36, 2.5 g/kg feed): 1.602^A g feed/g gain
Feed intake ([4]; Day 1-36, 2.5 g/kg feed): 3817^A g
Weight gain ([4]; Day 1-36, 2.5 g/kg feed): 2383^A g
Feed conversion ([4]; Day 1-36, 5 g/kg feed): 1.642^A g feed/g gain
Feed intake ([4]; Day 1-36, 5 g/kg feed): 3793^A g
Weight gain ([4]; Day 1-36, 5 g/kg feed): 2311^A g
Feed conversion ([4]; Day 1-36, 7.5 g/kg feed): 1.612^A g feed/g gain
Feed intake ([4]; Day 1-36, 7.5 g/kg feed): 3870^A g
Weight gain ([4]; Day 1-36, 7.5 g/kg feed): 2404^A g
Feed conversion ([4]; Day 1-36, 10 g/kg feed): 1.651^A g feed/g gain
Feed intake ([4]; Day 1-36, 10 g/kg feed): 3868^A g
Weight gain ([4]; Day 1-36, 10 g/kg feed): 2347^A g
Feed conversion ([4]; Day 22-36, 2.5 g/kg feed): 1.790^A g feed/g gain
Feed intake ([4]; Day 22-36, 2.5 g/kg feed): 2392^A g
Weight gain ([4]; Day 22-36, 2.5 g/kg feed): 1337^A g
Feed conversion ([4]; Day 22-36, 5 g/kg feed): 1.786^A g feed/g gain
Feed intake ([4]; Day 22-36, 5 g/kg feed): 2347^A g
Weight gain ([4]; Day 22-36, 5 g/kg feed): 1320^A g
Feed conversion ([4]; Day 22-36, 7.5 g/kg feed): 1.806^A g feed/g gain
Feed intake ([4]; Day 22-36, 7.5 g/kg feed): 2431^A g
Weight gain ([4]; Day 22-36, 7.5 g/kg feed): 1350^A g
Feed conversion ([4]; Day 22-36, 10 g/kg feed): 1.870^A g feed/g gain
Feed intake ([4]; Day 22-36, 10 g/kg feed): 2442^A g
Weight gain ([4]; Day 22-36, 10 g/kg feed): 1311^A g
numerical improvement of weight gain compared to the control ([4]; 2.5 g per kg feed): 3.6%
numerical improvement of weight gain compared to the control ([4]; 7.5 g per kg feed): 4.5%
improvement of weight gain compared to the control ([4]; starter period (day 1-22), across the different inclusion levels): 3.9% to 10.5
